Several values for one entry are separate records, joined by “and”; a condition that tells them apart may be missing. Equal values may be shown once.
Test system: 422866-222-R5-J1-PDC spheroid viability
Assay: Anticancer human tumor 422866-222-R5-J1-PDC patient-derived pancreatic adenocarcinoma cell line growth inhibition [CLK]
Settings: spheroids with HUVEC and MSC; for viability, T/C: stronger effect = lower value
Outline: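 Patient-derived tumor cells grown as complex spheroids with HUVEC endothelial cells and mesenchymal stem cells, treated with drug combinations. Concentrations descend in half-log steps from near clinical Cmax, or from 10 microM if Cmax unknown.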

[1] = curve of first compound, second compound 0.0316 µM
[2] = curve of first compound, second compound 0.1 µM
[3] = curve of first compound, second compound 0.316 µM
[4] = curve of first compound, second compound 1 µM
[5] = curve of first compound, second compound 3.16 µM
[6] = curve of first compound, second compound 10 µM
[7] = second compound 0.0316 µM, first compound 0.0316 µM
[8] = second compound 0.0316 µM, first compound 0.1 µM
[9] = second compound 0.0316 µM, first compound 0.316 µM
[10] = second compound 0.0316 µM, first compound 1 µM
[11] = second compound 0.1 µM, first compound 0.0316 µM
[12] = second compound 0.1 µM, first compound 0.1 µM
[13] = second compound 0.1 µM, first compound 0.316 µM
[14] = second compound 0.1 µM, first compound 1 µM
[15] = second compound 0.316 µM, first compound 0.0316 µM
[16] = second compound 0.316 µM, first compound 0.1 µM
[17] = second compound 0.316 µM, first compound 0.316 µM
[18] = second compound 0.316 µM, first compound 1 µM
[19] = second compound 1 µM, first compound 0.0316 µM
[20] = second compound 1 µM, first compound 0.1 µM
[21] = second compound 1 µM, first compound 0.316 µM
[22] = second compound 1 µM, first compound 1 µM
[23] = second compound 3.16 µM, first compound 0.0316 µM
[24] = second compound 3.16 µM, first compound 0.1 µM
[25] = second compound 3.16 µM, first compound 0.316 µM
[26] = second compound 3.16 µM, first compound 1 µM
[27] = second compound 10 µM, first compound 0.0316 µM
[28] = second compound 10 µM, first compound 0.1 µM
[29] = second compound 10 µM, first compound 0.316 µM
[30] = second compound 10 µM, first compound 1 µM
[31] = second compound 0.0316 µM, first compound 3.16 µM
[32] = second compound 0.0316 µM, first compound 10 µM
[33] = second compound 0.1 µM, first compound 3.16 µM
[34] = second compound 0.1 µM, first compound 10 µM
[35] = second compound 0.316 µM, first compound 3.16 µM
[36] = second compound 0.316 µM, first compound 10 µM
[37] = second compound 1 µM, first compound 3.16 µM
[38] = second compound 1 µM, first compound 10 µM
[39] = second compound 3.16 µM, first compound 3.16 µM
[40] = second compound 3.16 µM, first compound 10 µM
[41] = second compound 10 µM, first compound 3.16 µM
[42] = second compound 10 µM, first compound 10 µM
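Note: spheroids exposed to agents for seven days before readout.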

COc1c(OCCCN2CCOCC2)ccc2c3n(c(=NC(=O)c4cnc(N)nc4)nc12)CCN3 + CN1CCN(c2cc(C(=O)Nc3cc4cc(-c5cnn(C)c5)ccc4cn3)ccn2)CC1
IC50 [1]: 22 nM | IC50 [2]: 26.3 nM | IC50 [3]: 22.6 nM | IC50 [4]: < 3.16 nM | IC50 [5]: < 3.16 nM | IC50 [6]: < 3.16 nM | viability, T/C (second compound 0.0316 µM, first compound 0.00316 µM): 99.3% | viability, T/C (second compound 0.0316 µM, first compound 0.01 µM): 65.7% | viability, T/C [7]: 43.5% | viability, T/C [8]: 33.2% | viability, T/C [9]: 28.9% | viability, T/C [10]: 33.4% | viability, T/C (second compound 0.1 µM, first compound 0.00316 µM): 92.2% | viability, T/C (second compound 0.1 µM, first compound 0.01 µM): 73.2% | viability, T/C [11]: 46.9% | viability, T/C [12]: 31.6% | viability, T/C [13]: 32.2% | viability, T/C [14]: 34.5% | viability, T/C (second compound 0.316 µM, first compound 0.00316 µM): 92.8% | viability, T/C (second compound 0.316 µM, first compound 0.01 µM): 63% | viability, T/C [15]: 46.1% | viability, T/C [16]: 35.5% | viability, T/C [17]: 30.3% | viability, T/C [18]: 37.6% | viability, T/C (second compound 1 µM, first compound 0.00316 µM): 33.7% | viability, T/C (second compound 1 µM, first compound 0.01 µM): 33.4% | viability, T/C [19]: 21.6% | viability, T/C [20]: 25.6% | viability, T/C [21]: 18% | viability, T/C [22]: 23.8% | viability, T/C (second compound 3.16 µM, first compound 0.00316 µM): 9.85% | viability, T/C (second compound 3.16 µM, first compound 0.01 µM): 13.6% | viability, T/C [23]: 11.9% | viability, T/C [24]: 10.2% | viability, T/C [25]: 10.4% | viability, T/C [26]: 9.8% | viability, T/C (second compound 10 µM, first compound 0.00316 µM): 3.74% | viability, T/C (second compound 10 µM, first compound 0.01 µM): 4.24% | viability, T/C [27]: 3.81% | viability, T/C [28]: 1.77% | viability, T/C [29]: 5.18% | viability, T/C [30]: 3.72%

CC(=O)O[C@H]1C(=O)[C@@]2(C)[C@H]([C@H](OC(=O)c3ccccc3)[C@]3(O)C[C@H](OC(=O)[C@H](O)[C@@H](NC(=O)c4ccccc4)c4ccccc4)C(C)=C1C3(C)C)[C@]1(OC(C)=O)CO[C@@H]1C[C@@H]2O
viability, T/C (compound 0.0316 µM): 68% and 69.8% | viability, T/C (compound 0.1 µM): 69.3% and 72.6% | viability, T/C (compound 0.316 µM): 63.8% and 66.3% | viability, T/C (compound 1 µM): 68.3% and 75.5% | viability, T/C (compound 3.16 µM): 72.2% and 76% | viability, T/C (compound 10 µM): 85.7% and 81.6% | IC50 (curve of compound): > 10000 nM

COc1ccc([C@@H](O)c2cc(-c3ncnc4cc(N5CCOCC5)ccc34)c(F)cc2Cl)nn1 + CNC(=O)c1ccc(Nc2nc(OC3CCCC3)c3c(-c4ccc5nc(C)oc5c4)c[nH]c3n2)c(OC)c1
IC50 [1]: 2890 nM | IC50 [2]: 2710 nM | IC50 [3]: 775 nM | IC50 [4]: 617 nM | IC50 [5]: 548 nM | IC50 [6]: 1300 nM | viability, T/C [7]: 113% | viability, T/C [8]: 91.6% | viability, T/C [9]: 77.5% | viability, T/C [10]: 70.2% | viability, T/C [31]: 45.1% | viability, T/C [32]: 35.2% | viability, T/C [11]: 106% | viability, T/C [12]: 81.9% | viability, T/C [13]: 84.1% | viability, T/C [14]: 62.5% | viability, T/C [33]: 45.4% | viability, T/C [34]: 34.5% | viability, T/C [15]: 69.7% | viability, T/C [16]: 63.1% | viability, T/C [17]: 73.1% | viability, T/C [18]: 44.7% | viability, T/C [35]: 44.4% | viability, T/C [36]: 32.9% | viability, T/C [19]: 63.3% | viability, T/C [20]: 58% | viability, T/C [21]: 57% | viability, T/C [22]: 45.4% | viability, T/C [37]: 38.3% | viability, T/C [38]: 37.9% | viability, T/C [23]: 54.5% | viability, T/C [24]: 66.2% | viability, T/C [25]: 43.5% | viability, T/C [26]: 47.8% | viability, T/C [39]: 45.9% | viability, T/C [40]: 37.7% | viability, T/C [27]: 48.5% | viability, T/C [28]: 63.6% | viability, T/C [29]: 56.8% | viability, T/C [30]: 44.1% | viability, T/C [41]: 48.9% | viability, T/C [42]: 36.6%

CCN1CCN(Cc2ccc(Nc3ncc(F)c(-c4cc(F)c5nc(C)n(C(C)C)c5c4)n3)nc2)CC1
viability, T/C (compound 0.00316 µM): 99.5% and 74% | viability, T/C (compound 0.01 µM): 84% and 78.8% | viability, T/C (compound 0.0316 µM): 87% and 73.9% | viability, T/C (compound 0.1 µM): 82.6% and 59.1% | viability, T/C (compound 0.316 µM): 80.8% and 66.4% | viability, T/C (compound 1 µM): 98.7% and 90.2% | IC50 (curve of compound): > 1000 nM

CC(Nc1ccc2c(c1)OCCn1cc(N3C(=O)OCC3C(F)F)nc1-2)C(N)=O (stereo not given) + CNC(=O)c1ccc(Nc2nc(OC3CCCC3)c3c(-c4ccc5nc(C)oc5c4)c[nH]c3n2)c(OC)c1
IC50 [1]: 144 nM | IC50 [2]: 175 nM | IC50 [3]: 86 nM | IC50 [4]: 48.5 nM | IC50 [5]: 32 nM | IC50 [6]: 62.6 nM | viability, T/C [7]: 80.2% | viability, T/C [8]: 52.4% | viability, T/C [9]: 42.6% | viability, T/C [10]: 35.1% | viability, T/C [31]: 30.1% | viability, T/C [32]: 28.7% | viability, T/C [11]: 83.7% | viability, T/C [12]: 56.9% | viability, T/C [13]: 43.8% | viability, T/C [14]: 32.8% | viability, T/C [33]: 25.6% | viability, T/C [34]: 31.9% | viability, T/C [15]: 56.3% | viability, T/C [16]: 49.1% | viability, T/C [17]: 37% | viability, T/C [18]: 28.1% | viability, T/C [35]: 29.2% | viability, T/C [36]: 24.2% | viability, T/C [19]: 56.2% | viability, T/C [20]: 37.6% | viability, T/C [21]: 37.7% | viability, T/C [22]: 31% | viability, T/C [37]: 26.2% | viability, T/C [38]: 24.9% | viability, T/C [23]: 50.2% | viability, T/C [24]: 41.2% | viability, T/C [25]: 37.5% | viability, T/C [26]: 29.4% | viability, T/C [39]: 28.8% | viability, T/C [40]: 25.3% | viability, T/C [27]: 58.9% | viability, T/C [28]: 43% | viability, T/C [29]: 36.7% | viability, T/C [30]: 31.9% | viability, T/C [41]: 33.1% | viability, T/C [42]: 25.8%
